This passage reports Ki and Km results from article PMC2748668 (Pharmacological research : the official journal of the …, 2009).

In general, Ki refers to a measure of affinity in units of concentration, obtained from inhibition or displacement. A low value points to a stronger hold on the target. The term Km denotes the concentration of substrate that gives half-maximal velocity.

Molecules are shown by their SMILES.

The target of one series is T1, human OATP1B1 (Homo sapiens, UniProt Q9Y6L6).
T1 sequence (Q9Y6L6 1-691): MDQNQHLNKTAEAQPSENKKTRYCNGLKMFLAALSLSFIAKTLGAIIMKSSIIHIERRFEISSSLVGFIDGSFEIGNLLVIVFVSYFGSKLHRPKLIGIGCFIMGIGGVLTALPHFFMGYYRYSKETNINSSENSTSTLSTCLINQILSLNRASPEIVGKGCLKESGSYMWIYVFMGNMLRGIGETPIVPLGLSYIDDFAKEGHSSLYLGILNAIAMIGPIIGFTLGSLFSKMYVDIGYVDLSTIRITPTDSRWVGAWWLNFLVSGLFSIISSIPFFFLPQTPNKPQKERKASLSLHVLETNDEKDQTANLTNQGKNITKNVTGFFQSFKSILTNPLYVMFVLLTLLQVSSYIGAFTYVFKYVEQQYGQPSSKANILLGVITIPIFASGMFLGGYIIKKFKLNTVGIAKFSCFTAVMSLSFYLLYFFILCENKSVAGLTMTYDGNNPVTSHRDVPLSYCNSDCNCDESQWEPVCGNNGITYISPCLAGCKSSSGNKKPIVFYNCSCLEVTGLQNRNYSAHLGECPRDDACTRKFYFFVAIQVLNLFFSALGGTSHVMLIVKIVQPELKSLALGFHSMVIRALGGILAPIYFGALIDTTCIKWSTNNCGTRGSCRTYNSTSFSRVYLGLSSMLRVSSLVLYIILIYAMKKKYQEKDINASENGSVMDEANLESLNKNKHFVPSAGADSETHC
Assay: not given
Details: not given
For `CN(CCOc1ccc(C[C@H](Nc2ccccc2C(=O)c2ccccc2)C(=O)O)cc1)c1ccccn1` [GW1929], the inhibition constant Ki is 0.3 ± 0.05 µM.

The molecule `CC(C)c1onc(-c2c(Cl)cccc2Cl)c1COc1ccc(/C=C/c2cccc(C(=O)O)c2)c(Cl)c1` [GW4064] yielded a Ki of 32.4 ± 6.7 µM. Compared with the last molecule, the Ki is about 110-fold higher. `C[C@]12CC[C@@H]3c4ccc(OS(=O)(=O)O)cc4CC[C@H]3[C@@H]1CCC2=O` [Estrone-3-sulfate] yielded an inhibition constant (Ki) of 0.2 ± 0.02 µM.

A further series relates to Oatp1a5.
Assay: not given
To be noted: estrone-3-sulfate as substrate of Oatp1a5; cited from earlier work.
In the case of `C[C@]12CC[C@@H]3c4ccc(OS(=O)(=O)O)cc4CC[C@H]3[C@@H]1CCC2=O` [Estrone-3-sulfate], the Michaelis-Menten constant (Km) was 268 µM.

Another series has as its system OATP1B1.
Assay: not given
To be noted: estrone-3-sulfate as substrate of OATP1B1; cited from earlier work.
For the molecule `C[C@]12CC[C@@H]3c4ccc(OS(=O)(=O)O)cc4CC[C@H]3[C@@H]1CCC2=O` [Estrone-3-sulfate], the Michaelis constant (Km) is 2.4 µM.

The target in another series is T1, human OATP1B1. As to the kind of experiment: Inhibition kinetic studies.
Details: not given
In turn, `C[C@H](CCC(=O)NCCS(=O)(=O)O)[C@H]1CC[C@H]2[C@@H]3[C@H](O)C[C@@H]4C[C@H](O)CC[C@]4(C)[C@H]3C[C@H](O)[C@]12C` [Taurocholic acid] registered an inhibition constant (Ki) of 11.4 ± 3.2 µM.

The series is the same for the next values; noted with them: Km of the model substrate given in the Ki column (footnote *), mean ± SD.
For the molecule `C[C@]12CC[C@@H]3c4ccc(O)cc4CC[C@H]3[C@@H]1CC[C@@H]2O[C@@H]1O[C@H](C(=O)O)[C@@H](O)[C@H](O)[C@H]1O`, the Michaelis constant (Km) is 5.9 ± 1.2 µM.

Another series concerns the target T1, human OATP1B1. As to the kind of experiment: cell-based.
Details: not given
In the case of `C[C@H](CCC(=O)NCC(=O)O)[C@H]1CC[C@H]2[C@@H]3[C@H](O)C[C@@H]4C[C@H](O)CC[C@]4(C)[C@H]3C[C@H](O)[C@]12C` [Glycocholic acid], the affinity, expressed as Ki, was 22.2 ± 3.9 µM. Take `CC(C)(Oc1ccc(CCNC(=O)c2ccc(Cl)cc2)cc1)C(=O)O` [Bezafibrate]: the affinity corresponds to a Ki of 45.2 ± 5.9 µM. For `C[C@H](CCC(=O)O)[C@H]1CC[C@H]2[C@@H]3CC[C@@H]4C[C@H](O)CC[C@]4(C)[C@H]3C[C@H](O)[C@]12C` [Deoxycholic acid], the Ki was 3.2 ± 0.5 µM. The molecule `C[C@H](CCC(=O)O)[C@H]1CC[C@H]2[C@@H]3[C@H](O)C[C@@H]4C[C@H](O)CC[C@]4(C)[C@H]3C[C@H](O)[C@]12C` [Cholic acid] showed a Ki of 25 ± 3.3 µM. For the molecule `NC(Cc1cc(I)c(Oc2cc(I)c(O)c(I)c2)c(I)c1)C(=O)O` (centres unmarked) [Thyroxine], the Ki is 3.5 ± 0.7 µM. This Ki is about 7.1-fold lower than that of the molecule before.

In turn, `C[C@H](CCC(=O)O)[C@H]1CC[C@H]2[C@@H]3C(=O)C[C@@H]4CC(=O)CC[C@]4(C)[C@H]3CC(=O)[C@]12C` [Dehydrocholic acid] came in with a Ki of 29.7 ± 5.7 µM. This Ki lies about 8.5-fold higher than the previous one.

As to `C[C@@]12CCC[C@H]1[C@@H]1CC[C@H]3CCCC[C@]3(C)[C@H]1CC2`, affinity was put at a Ki of 374 ± 123 µM.

As for `Cc1cccc(Nc2cc(Cl)nc(SCC(=O)O)n2)c1C` [WY-14643], the Ki is 1.6 ± 0.11 µM. Molecule `CC[C@H](C)C(=O)O[C@H]1C[C@H](O)C=C2C=C[C@H](C)[C@H](CC[C@@H](O)C[C@@H](O)CC(=O)O)[C@H]21` [Pravastatin] displayed a Ki of 21.8 ± 3.6 µM. Regarding `CC(C)OC(=O)C(C)(C)Oc1ccc(C(=O)c2ccc(Cl)cc2)cc1` [Fenofibrate], affinity was put at a Ki of 105 ± 26.7 µM. Molecule `Clc1ccccc1C(c1ccccc1)(c1ccccc1)n1ccnc1` [Clotrimazole] yielded a Ki of 7.6 ± 1.9 µM.

`C[C@H](CCC(=O)O)[C@H]1CC[C@H]2[C@@H]3[C@H](O)C[C@@H]4C[C@H](O)CC[C@]4(C)[C@H]3CC[C@]12C` [Chenodeoxycholic acid] came in with an inhibition constant Ki of 3.4 ± 0.5 µM. Consider `C[C@H](CCC(=O)O)[C@H]1CC[C@H]2[C@@H]3CC[C@@H]4C[C@H](O)CC[C@]4(C)[C@H]3CC[C@]12C` [Lithocholic acid], for which the affinity corresponds to a Ki of 1.2 ± 0.2 µM.

Molecule `CC[C@H](C)C(=O)O[C@H]1C[C@@H](C)C=C2C=C[C@H](C)[C@H](CC[C@@H]3C[C@@H](O)CC(=O)O3)[C@H]21` [Mevinolin] gave an inhibitory constant (Ki) of 12.7 ± 1.9 µM.

`C[C@]12CC[C@@H]3c4ccc(O)cc4CC[C@H]3[C@@H]1CC[C@@H]2O` [Estradiol] yielded an inhibition constant (Ki) of 3.3 ± 0.6 µM.

For `CC#C[C@]1(O)CC[C@H]2[C@@H]3CCC4=CC(=O)CCC4=C3[C@@H](c3ccc(N(C)C)cc3)C[C@@]21C` [Mifepristone], the affinity, expressed as Ki, was 2.2 ± 0.3 µM.
